Measurements reported in ChEMBL document CHEMBL4765275, “Discovery of novel tertiary amide derivatives as NEDDylation pathway activators to inhibit the tumor progression in vitro and in vivo” (Eur J Med Chem, 2020).
Calls of active or inactive are those of the source. No cut-off for these calls is given here.

Assays:
MGC-803 [1] = assay: Induction of apoptosis in human MGC-803 cells assessed as necrotic cells at 150 nmol/L measured after 48 hrs by Annexin V-FITC/propidium iodide staining based flow cytometry (reference value: 0.5%); type: functional
MGC-803 [2] = assay: Induction of apoptosis in human MGC-803 cells assessed as upregulation of PIDD expression at 50 to 150 nmol/L measured after 48 hrs by Western blot analysis; type: functional, cell-based; conditions: dose 50-150 nmol/L
MGC-803 [3] = assay: Cell cycle arrest in human MGC-803 cells assessed as accumulation at G1 phase at 150 nmol/L measured after 48 hrs by propidium iodide staining based flow cytometry (reference value: 40.61%); type: functional
MGC-803 [4] = assay: Antitumor activity against human MGC-803 cells xenografted in mouse assessed as reduction in tumor volume at 100 to 150 mg/kg, sc measured after 28 days by caliper method; type: functional, organism-based; conditions: dose 100-150 mg/kg, time 28.0 day
MGC-803 [5] = assay: Induction of apoptosis in human MGC-803 cells assessed as late apoptotic cells at 150 nmol/L measured after 48 hrs by Annexin V-FITC/propidium iodide staining based flow cytometry (reference value: 5.6%); type: functional

In the case of COc1ccc(CN(C(=O)Cc2cccs2)c2cc(OC)c(OC)c(OC)c2)cc1, the Activity (MGC-803 [1]) is reported as 3.8%, the Activity (MGC-803 [2]) is reported as “Active” and the Activity (MGC-803 [3]) is reported as 13.31%. The Activity (MGC-803 [4]) was “Active” and the Activity (MGC-803 [5]) was 47.6%.
